According to ChEMBL document CHEMBL4359908, “Structure-activity relationship with pyrazoline-based aromatic sulfamates as carbonic anhydrase isoforms I, II, IX and XII inhibitors: Synthesis and biological evaluation” (Eur J Med Chem, 2019):

What was measured:
Carbonic anhydrase 1 = Carbonic anhydrase 1 (Homo sapiens, UniProt P00915); test: Inhibition of human carbonic anhydrase 1 assessed as inhibitory constant incubated for 15 mins by phenol red dye based stopped flow assay
Carbonic anhydrase 9 = Carbonic anhydrase 9 (Homo sapiens, UniProt Q16790); test: Inhibition of human carbonic anhydrase 9 assessed as inhibitory constant incubated for 15 mins by phenol red dye based stopped flow assay
Carbonic anhydrase 2 = Carbonic anhydrase 2 (Homo sapiens, UniProt P00918); test: Inhibition of human carbonic anhydrase 2 assessed as inhibitory constant incubated for 15 mins by phenol red dye based stopped flow assay
Carbonic anhydrase 12 = Carbonic anhydrase 12 (Homo sapiens, UniProt O43570); test: Inhibition of human carbonic anhydrase 12 assessed as inhibitory constant incubated for 15 mins by phenol red dye based stopped flow assay
Sequence of Carbonic anhydrase 12 (O43570 whole entry): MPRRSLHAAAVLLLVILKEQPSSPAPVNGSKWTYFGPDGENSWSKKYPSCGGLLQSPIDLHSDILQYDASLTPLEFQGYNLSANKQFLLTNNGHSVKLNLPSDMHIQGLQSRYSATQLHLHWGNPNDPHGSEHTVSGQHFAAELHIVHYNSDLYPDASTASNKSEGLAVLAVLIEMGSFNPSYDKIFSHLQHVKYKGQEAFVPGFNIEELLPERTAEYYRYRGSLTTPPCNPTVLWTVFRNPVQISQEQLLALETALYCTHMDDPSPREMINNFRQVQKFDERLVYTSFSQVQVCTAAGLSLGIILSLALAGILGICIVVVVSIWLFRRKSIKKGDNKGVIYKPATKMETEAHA

Sequence of Carbonic anhydrase 1 (P00915 whole entry): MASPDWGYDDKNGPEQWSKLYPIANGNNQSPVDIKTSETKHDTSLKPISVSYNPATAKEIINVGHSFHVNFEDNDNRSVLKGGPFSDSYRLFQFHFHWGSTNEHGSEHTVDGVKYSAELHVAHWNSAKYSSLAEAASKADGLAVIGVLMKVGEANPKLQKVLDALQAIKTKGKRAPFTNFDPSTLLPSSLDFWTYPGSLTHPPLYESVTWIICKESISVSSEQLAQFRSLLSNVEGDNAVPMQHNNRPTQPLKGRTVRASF

In the case of CC(=O)N1N=C(c2ccc(OS(N)(=O)=O)cc2)CC1c1ccc([N+](=O)[O-])cc1 (configuration not stated), the Ki (Carbonic anhydrase 1) is reported as 3210 nM, the Ki (Carbonic anhydrase 9) is reported as 74.3 nM and the Ki (Carbonic anhydrase 2) is reported as 1.2 nM.

In the case of CC(=O)N1N=C(c2ccc([N+](=O)[O-])cc2)CC1c1cccc(OS(N)(=O)=O)c1 (configuration not stated), the Ki (Carbonic anhydrase 12) is reported as 20.5 nM, the Ki (Carbonic anhydrase 1) is reported as 2550 nM and the Ki (Carbonic anhydrase 9) is reported as 9.4 nM. It also gave a Ki (Carbonic anhydrase 2) of 22.9 nM.

COc1ccc(C2CC(c3cccc(OS(N)(=O)=O)c3)=NN2C(C)=O)cc1 (configuration not stated) showed a Ki (Carbonic anhydrase 12) of 48.6 nM, a Ki (Carbonic anhydrase 1) of 172 nM and a Ki (Carbonic anhydrase 9) of 8.7 nM. It also gave a Ki (Carbonic anhydrase 2) of 52.4 nM.

With CC(=O)N1N=C(c2cccc(OS(N)(=O)=O)c2)CC1c1ccc(C(F)(F)F)cc1 (configuration not stated) the Ki (Carbonic anhydrase 12) was 8.9 nM, the Ki (Carbonic anhydrase 1) was 952 nM and the Ki (Carbonic anhydrase 9) was 3.7 nM. The Ki (Carbonic anhydrase 2) was 22.2 nM.

For CC(=O)N1N=C(c2ccc(Cl)c(Cl)c2)CC1c1cccc(OS(N)(=O)=O)c1 (configuration not stated), the Ki (Carbonic anhydrase 12) was 85.2 nM, the Ki (Carbonic anhydrase 1) was 8170 nM and the Ki (Carbonic anhydrase 9) was 15.5 nM. For the same molecule, the Ki (Carbonic anhydrase 2) was 54.8 nM.

CC(=O)N1N=C(c2cccc(OS(N)(=O)=O)c2)CC1c1ccc(C)cc1 (configuration not stated) gave a Ki (Carbonic anhydrase 12) of 55.9 nM, a Ki (Carbonic anhydrase 1) of 558 nM and a Ki (Carbonic anhydrase 9) of 29.4 nM. The Ki (Carbonic anhydrase 2) was 71.2 nM.

In the case of CC(=O)N1N=C(c2ccc(OS(N)(=O)=O)cc2)CC1c1ccc(C(F)(F)F)cc1 (configuration not stated), the Ki (Carbonic anhydrase 1) is reported as 2740 nM, the Ki (Carbonic anhydrase 9) is reported as 29.3 nM and the Ki (Carbonic anhydrase 2) is reported as 0.83 nM.

With CC(=O)N1N=C(c2ccc(OS(N)(=O)=O)cc2)CC1c1ccc(F)cc1 (configuration not stated) the Ki (Carbonic anhydrase 12) was 11.8 nM, the Ki (Carbonic anhydrase 1) was 666 nM and the Ki (Carbonic anhydrase 9) was 5.9 nM. The Ki (Carbonic anhydrase 2) was 1.5 nM.

Work on CC(=O)N1N=C(c2ccc(Cl)cc2)CC1c1ccc(OS(N)(=O)=O)cc1 (configuration not stated) yielded a Ki (Carbonic anhydrase 12) of 29.5 nM, a Ki (Carbonic anhydrase 1) of 970 nM and a Ki (Carbonic anhydrase 9) of 8.3 nM. For the same molecule, the Ki (Carbonic anhydrase 2) was 19.5 nM.

Molecule CC(=O)N1N=C(c2ccc(Cl)cc2Cl)CC1c1ccc(OS(N)(=O)=O)cc1 (configuration not stated) has a Ki (Carbonic anhydrase 12) of 42 nM, a Ki (Carbonic anhydrase 1) of 3520 nM and a Ki (Carbonic anhydrase 9) of 49.9 nM. It also gave a Ki (Carbonic anhydrase 2) of 5.3 nM.

CC(=O)N1N=C(c2ccc(OS(N)(=O)=O)cc2)CC1c1ccccc1 (configuration not stated) showed a Ki (Carbonic anhydrase 1) of 1310 nM, a Ki (Carbonic anhydrase 9) of 34.1 nM and a Ki (Carbonic anhydrase 2) of 8.9 nM.

COc1ccc(C2CC(c3ccc(OS(N)(=O)=O)cc3)=NN2C(C)=O)cc1 (configuration not stated) was tested, and the Ki (Carbonic anhydrase 12) was 42.6 nM, the Ki (Carbonic anhydrase 1) was 1610 nM and the Ki (Carbonic anhydrase 9) was 25 nM. The Ki (Carbonic anhydrase 2) was 5.3 nM.

For CC(=O)N1N=C(c2cccc(OS(N)(=O)=O)c2)CC1c1ccc(F)cc1 (configuration not stated), the Ki (Carbonic anhydrase 12) was 13.5 nM, the Ki (Carbonic anhydrase 1) was 67.4 nM and the Ki (Carbonic anhydrase 9) was 8.4 nM. The Ki (Carbonic anhydrase 2) was 38 nM.

CC(=O)N1N=C(c2ccc(OS(N)(=O)=O)cc2)CC1c1c(Cl)cccc1Cl (configuration not stated) showed a Ki (Carbonic anhydrase 12) of 43.7 nM, a Ki (Carbonic anhydrase 1) of 4080 nM and a Ki (Carbonic anhydrase 9) of 33.4 nM. It also gave a Ki (Carbonic anhydrase 2) of 13.2 nM.

Molecule CC(=O)N1N=C(c2ccc(Cl)c(Cl)c2)CC1c1ccc(OS(N)(=O)=O)cc1 (configuration not stated) has a Ki (Carbonic anhydrase 12) of 12.9 nM, a Ki (Carbonic anhydrase 1) of 2900 nM and a Ki (Carbonic anhydrase 9) of 7.7 nM. It also gave a Ki (Carbonic anhydrase 2) of 27.6 nM.

With CC(=O)N1N=C(c2ccc(OS(N)(=O)=O)cc2)CC1c1cccc(Cl)c1 (configuration not stated) the Ki (Carbonic anhydrase 12) was 9.8 nM, the Ki (Carbonic anhydrase 1) was 2310 nM and the Ki (Carbonic anhydrase 9) was 0.72 nM. The Ki (Carbonic anhydrase 2) was 0.87 nM.

With CC(=O)N1N=C(c2ccc(OS(N)(=O)=O)cc2)CC1c1cccc2ccccc12 (configuration not stated) the Ki (Carbonic anhydrase 12) was 56.4 nM, the Ki (Carbonic anhydrase 1) was 3300 nM and the Ki (Carbonic anhydrase 9) was 49 nM. For the same molecule, the Ki (Carbonic anhydrase 2) was 27.5 nM.

CC(=O)N1N=C(c2ccccc2)CC1c1cccc(OS(N)(=O)=O)c1 (configuration not stated) showed a Ki (Carbonic anhydrase 12) of 22.9 nM, a Ki (Carbonic anhydrase 1) of 755 nM and a Ki (Carbonic anhydrase 9) of 13.1 nM. It also gave a Ki (Carbonic anhydrase 2) of 16.5 nM.

CC(=O)N1N=C(c2ccc(Cl)cc2)CC1c1cccc(OS(N)(=O)=O)c1 (configuration not stated) gave a Ki (Carbonic anhydrase 12) of 22.3 nM, a Ki (Carbonic anhydrase 1) of 2140 nM and a Ki (Carbonic anhydrase 9) of 0.81 nM. It also gave a Ki (Carbonic anhydrase 2) of 32.7 nM.

In the case of CC(=O)N1N=C(c2cccc(OS(N)(=O)=O)c2)CC1c1ccc(Cl)cc1 (configuration not stated), the Ki (Carbonic anhydrase 12) is reported as 9.3 nM, the Ki (Carbonic anhydrase 1) is reported as 438 nM and the Ki (Carbonic anhydrase 9) is reported as 6.9 nM. The Ki (Carbonic anhydrase 2) was 14.7 nM.
